According to ChEMBL document CHEMBL1201862, “PubChem BioAssay data set” (2004):
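Results reflect a 48-hour exposure of cells in 96-well plates to compound at five concentrations. The concentration for 50% growth inhibition is given as GI50.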 The source made the active and inactive calls. Cut-off read from the data, not from the text of the source: active = GI50 up to about 1.1 µM and inactive = higher.

Legend:
Experiment in all cases: NCI tumour cell line growth inhibition, 48 h
MOLT-4 = test system: MOLT-4
A498 = test system: A498
NCI-H23 = test system: NCI-H23
U-251 = test system: U-251
OVCAR-3 = test system: OVCAR-3
SK-MEL-2 = test system: SK-MEL-2
EKVX = test system: EKVX
UO-31 = test system: UO-31
HCT-15 = test system: HCT-15
DU-145 = test system: DU-145
MDA-MB-435 = test system: MDA-MB-435
LOX IMVI = test system: LOX IMVI
OVCAR-5 = test system: OVCAR-5
SF-295 = test system: SF-295
OVCAR-8 = test system: OVCAR-8
NCI/ADR-RES = test system: NCI/ADR-RES
PC-3 = test system: PC-3
NCI-H226 = test system: NCI-H226
ACHN = test system: ACHN
KM12 = test system: KM12
MDA-MB-231 = test system: MDA-MB-231
HOP-62 = test system: HOP-62
HT-29 = test system: HT-29
RXF 393 = test system: RXF 393
SW-620 = test system: SW-620
K562 = test system: K562
MDA-N = test system: MDA-N
HL-60 = test system: HL-60
OVCAR-4 = test system: OVCAR-4
IGROV-1 = test system: IGROV-1
SNB-75 = test system: SNB-75
SK-MEL-5 = test system: SK-MEL-5
BT-549 = test system: BT-549
SF-268 = test system: SF-268
Malme-3M = test system: Malme-3M
SN12C = test system: SN12C
SNB-19 = test system: SNB-19
Hs-578T = test system: Hs-578T
HCC 2998 = test system: HCC 2998
CAKI-1 = test system: CAKI-1
NCI-H460 = test system: NCI-H460
MCF7 = test system: MCF7
786-0 = test system: 786-0
COLO 205 = test system: COLO 205
NCI-H522 = test system: NCI-H522
SR = test system: SR
SK-MEL-28 = test system: SK-MEL-28
HCT-116 = test system: HCT-116
HOP-92 = test system: HOP-92
CCRF-CEM = test system: CCRF-CEM
RPMI-8226 = test system: RPMI-8226
M14 = test system: M14
SK-OV-3 = test system: SK-OV-3
UACC-62 = test system: UACC-62
SF-539 = test system: SF-539
A549 = test system: A549
TK-10 = test system: TK-10
UACC-257 = test system: UACC-257
T47D = test system: T47D

With `O=C(O)c1ccc(Nc2nc3cc(C(F)(F)F)ccc3nc2C(=O)O)cc1` the GI50 (MOLT-4) was > 100 µM (inactive), the GI50 (A498) was > 100 µM (inactive) and the GI50 (NCI-H23) was > 100 µM (inactive). For the same compound, the GI50 (U-251) was > 100 µM (inactive), the GI50 (OVCAR-3) was > 100 µM (inactive) and the GI50 (SK-MEL-2) was > 100 µM (inactive). For the same compound, the GI50 (EKVX) was > 100 µM (inactive), the GI50 (UO-31) was > 100 µM (inactive) and the GI50 (HCT-15) was > 100 µM. For the same compound, the GI50 (DU-145) was > 100 µM (inactive), the GI50 (MDA-MB-435) was > 100 µM (inactive) and the GI50 (LOX IMVI) was > 100 µM (inactive). For the same compound, the GI50 (OVCAR-5) was > 100 µM (inactive), the GI50 (SF-295) was > 100 µM (inactive) and the GI50 (OVCAR-8) was > 100 µM (inactive). For the same compound, the GI50 (NCI/ADR-RES) was > 100 µM (inactive), the GI50 (PC-3) was > 100 µM (inactive) and the GI50 (NCI-H226) was > 100 µM (inactive). For the same compound, the GI50 (ACHN) was > 100 µM (inactive), the GI50 (KM12) was > 100 µM (inactive) and the GI50 (MDA-MB-231) was > 100 µM (inactive). For the same compound, the GI50 (HOP-62) was > 100 µM (inactive), the GI50 (HT-29) was > 100 µM (inactive) and the GI50 (RXF 393) was > 100 µM (inactive). For the same compound, the GI50 (SW-620) was > 100 µM (inactive), the GI50 (K562) was > 100 µM (inactive) and the GI50 (MDA-N) was > 100 µM (inactive). The GI50 (HL-60) was > 100 µM (inactive), the GI50 (OVCAR-4) was > 100 µM (inactive) and the GI50 (IGROV-1) was > 100 µM (inactive). The GI50 (SNB-75) was > 100 µM (inactive), the GI50 (SK-MEL-5) was > 100 µM (inactive) and the GI50 (BT-549) was > 100 µM (inactive). For the same compound, the GI50 (SF-268) was 93.3 µM (inactive), the GI50 (Malme-3M) was > 100 µM (inactive) and the GI50 (SN12C) was > 100 µM (inactive). For the same compound, the GI50 (SNB-19) was > 100 µM (inactive), the GI50 (Hs-578T) was > 100 µM (inactive) and the GI50 (HCC 2998) was > 100 µM (inactive). The GI50 (CAKI-1) was > 100 µM (inactive), the GI50 (NCI-H460) was > 100 µM (inactive) and the GI50 (MCF7) was > 100 µM (inactive). For the same compound, the GI50 (786-0) was > 100 µM (inactive), the GI50 (COLO 205) was > 100 µM (inactive) and the GI50 (NCI-H522) was > 100 µM (inactive). For the same compound, the GI50 (SR) was > 100 µM (inactive), the GI50 (SK-MEL-28) was > 100 µM (inactive) and the GI50 (HCT-116) was > 100 µM (inactive).
With `COc1ccc2c(c1)C(=O)/C(=C/c1ccccc1)C2` the GI50 (MOLT-4) was 16.3 µM (inactive), the GI50 (A498) was 44 µM (inactive) and the GI50 (NCI-H23) was 42.4 µM (inactive). The GI50 (U-251) was > 100 µM (inactive), the GI50 (OVCAR-3) was 39.2 µM (inactive) and the GI50 (SK-MEL-2) was 74.1 µM (inactive). For the same compound, the GI50 (UO-31) was 49.7 µM (inactive), the GI50 (HCT-15) was 69 µM and the GI50 (DU-145) was > 100 µM (inactive). The GI50 (MDA-MB-435) was 63.2 µM (inactive), the GI50 (OVCAR-5) was 52.5 µM (inactive) and the GI50 (HOP-92) was 59.7 µM (inactive). The GI50 (SF-295) was > 100 µM (inactive), the GI50 (OVCAR-8) was > 100 µM (inactive) and the GI50 (NCI/ADR-RES) was 24.7 µM (inactive). For the same compound, the GI50 (PC-3) was 68.9 µM (inactive), the GI50 (NCI-H226) was 25 µM (inactive) and the GI50 (KM12) was > 100 µM (inactive). The GI50 (HOP-62) was 29.6 µM (inactive), the GI50 (HT-29) was 31.6 µM (inactive) and the GI50 (RXF 393) was 43.9 µM (inactive). For the same compound, the GI50 (CCRF-CEM) was 11.3 µM (inactive), the GI50 (K562) was 29 µM (inactive) and the GI50 (MDA-N) was 39 µM (inactive). The GI50 (HL-60) was > 10 µM (inactive), the GI50 (OVCAR-4) was 55.7 µM (inactive) and the GI50 (IGROV-1) was > 100 µM (inactive). For the same compound, the GI50 (SNB-75) was 46.5 µM (inactive), the GI50 (SK-MEL-5) was 29.4 µM (inactive) and the GI50 (BT-549) was 27.2 µM (inactive). The GI50 (Malme-3M) was > 100 µM (inactive), the GI50 (SN12C) was > 100 µM (inactive) and the GI50 (SNB-19) was 95.1 µM (inactive). The GI50 (Hs-578T) was > 100 µM (inactive), the GI50 (CAKI-1) was 20.2 µM (inactive) and the GI50 (NCI-H460) was 34 µM (inactive). For the same compound, the GI50 (RPMI-8226) was 45.7 µM (inactive), the GI50 (MCF7) was 7.36 µM (inactive) and the GI50 (M14) was 27 µM (inactive). For the same compound, the GI50 (SK-OV-3) was > 100 µM (inactive), the GI50 (NCI-H522) was 45.2 µM (inactive) and the GI50 (SR) was 76.7 µM (inactive). The GI50 (SK-MEL-28) was > 100 µM (inactive) and the GI50 (UACC-62) was 52.6 µM (inactive).
In the case of `CC(=O)O/C=C\OC1CCCC1`, the GI50 (MOLT-4) is reported as > 100 µM (inactive), the GI50 (A498) is reported as > 100 µM (inactive) and the GI50 (NCI-H23) is reported as > 100 µM (inactive). For the same compound, the GI50 (U-251) was > 100 µM (inactive), the GI50 (OVCAR-3) was > 100 µM (inactive) and the GI50 (SK-MEL-2) was > 100 µM (inactive). The GI50 (EKVX) was > 100 µM (inactive), the GI50 (UO-31) was > 100 µM (inactive) and the GI50 (HCT-15) was > 100 µM. For the same compound, the GI50 (SF-539) was > 100 µM (inactive), the GI50 (DU-145) was > 100 µM (inactive) and the GI50 (A549) was > 100 µM (inactive). For the same compound, the GI50 (MDA-MB-435) was > 100 µM (inactive), the GI50 (LOX IMVI) was > 100 µM (inactive) and the GI50 (HOP-92) was > 100 µM (inactive). For the same compound, the GI50 (SF-295) was > 100 µM (inactive), the GI50 (OVCAR-8) was > 100 µM (inactive) and the GI50 (NCI/ADR-RES) was > 100 µM (inactive). The GI50 (PC-3) was > 100 µM (inactive), the GI50 (NCI-H226) was > 100 µM (inactive) and the GI50 (ACHN) was > 100 µM (inactive). For the same compound, the GI50 (KM12) was > 100 µM (inactive), the GI50 (MDA-MB-231) was > 100 µM (inactive) and the GI50 (TK-10) was > 100 µM (inactive). The GI50 (HOP-62) was > 100 µM (inactive), the GI50 (HT-29) was > 100 µM (inactive) and the GI50 (RXF 393) was > 100 µM (inactive). For the same compound, the GI50 (SW-620) was > 100 µM (inactive), the GI50 (CCRF-CEM) was 21.9 µM (inactive) and the GI50 (K562) was > 100 µM (inactive). For the same compound, the GI50 (UACC-257) was > 100 µM (inactive), the GI50 (MDA-N) was > 100 µM (inactive) and the GI50 (HL-60) was > 100 µM (inactive). For the same compound, the GI50 (OVCAR-4) was > 100 µM (inactive), the GI50 (IGROV-1) was > 100 µM (inactive) and the GI50 (SNB-75) was 55 µM (inactive). The GI50 (SK-MEL-5) was > 100 µM (inactive), the GI50 (SF-268) was > 100 µM (inactive) and the GI50 (Malme-3M) was > 100 µM (inactive). For the same compound, the GI50 (SNB-19) was > 100 µM (inactive), the GI50 (Hs-578T) was > 100 µM (inactive) and the GI50 (HCC 2998) was > 100 µM (inactive). For the same compound, the GI50 (CAKI-1) was > 100 µM (inactive), the GI50 (NCI-H460) was > 100 µM (inactive) and the GI50 (RPMI-8226) was > 100 µM (inactive). The GI50 (MCF7) was > 100 µM (inactive), the GI50 (786-0) was > 100 µM (inactive) and the GI50 (M14) was > 100 µM (inactive). For the same compound, the GI50 (COLO 205) was > 100 µM (inactive), the GI50 (SK-OV-3) was > 100 µM (inactive) and the GI50 (NCI-H522) was > 100 µM (inactive). The GI50 (SR) was > 100 µM (inactive), the GI50 (T47D) was > 100 µM (inactive) and the GI50 (SK-MEL-28) was > 100 µM (inactive). The GI50 (UACC-62) was > 100 µM (inactive).
